According to patent US20160002204A1 (Board of Regents, The University of Texas System, priority 2014, published 2016):

Key:
[1] = target: T1, GLS1 (purified recombinant human GAC) (Homo sapiens, UniProt O94925); test: GLS1 enzymatic activity assay (dual-coupled, Amplex UltraRed/resorufin); format: biochemical
T1 sequence (O94925 55-598 isoform O94925-3 limits assumed): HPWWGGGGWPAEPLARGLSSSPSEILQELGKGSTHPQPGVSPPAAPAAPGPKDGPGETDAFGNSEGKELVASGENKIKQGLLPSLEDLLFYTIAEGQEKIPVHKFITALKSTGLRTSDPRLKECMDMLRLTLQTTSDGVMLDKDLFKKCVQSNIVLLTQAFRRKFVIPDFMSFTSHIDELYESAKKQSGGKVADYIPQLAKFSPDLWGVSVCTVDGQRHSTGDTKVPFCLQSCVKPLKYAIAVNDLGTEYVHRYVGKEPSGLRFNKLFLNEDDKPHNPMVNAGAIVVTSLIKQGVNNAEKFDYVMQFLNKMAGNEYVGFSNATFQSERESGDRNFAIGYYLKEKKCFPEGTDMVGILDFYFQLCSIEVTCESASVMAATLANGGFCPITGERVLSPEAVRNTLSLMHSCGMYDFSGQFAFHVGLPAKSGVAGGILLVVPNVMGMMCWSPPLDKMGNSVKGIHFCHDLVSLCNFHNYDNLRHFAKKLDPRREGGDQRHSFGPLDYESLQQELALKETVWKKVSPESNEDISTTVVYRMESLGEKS
Procedure, shortened: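 In this coupled fluorometric format, phosphate-activated GAC (2 nM, 50 mM phosphate) is pre-exposed to compound for 10 min before 1 mM glutamine addition. Product is tracked as resorufin (530/590 nm) over time or at 20 min, and potency is derived by logistic fitting.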

A549 cells = test: A549 proliferation (viability) assay, Cell Titer Fluor, 72 hours; format: cell-based; conditions: Homo sapiens
Procedure, shortened: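 A549 cells seeded at 1000 cells/well, left 24 h, then exposed to compound for 72 h at 37 °C, 5% CO2, final DMSO 0.5% (v/v). Viability read by Cell Titer Fluor fluorescence; EC50 from four-parameter logistic fit.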

IC50 [1] [nM] | EC50 (A549 cells) [nM] | Compound
< 100 | 100 to 500 | O=C(Nc1ccn(CCC(F)Cn2cc(C(=O)NCc3cc(C(F)(F)F)ccn3)nn2)c(=O)n1)OCc1ccccc1F (stereo not shown) [Example 501, (2-fluorophenyl)methyl N-(1-{3-fluoro-4-[4-({[4-(trifluoromethyl)pyridin-2-yl]methyl}carbamoyl)-1H-1,2,3-triazol-1-yl]butyl}-2-oxo-1,2-dihydropyrimidin-4-yl)carbamate]
< 100 | 100 to 500 | O=C(Cc1ccccn1)Nc1nnc(CCCCn2ccc(NC(=O)CC3CCCC3)c(F)c2=O)s1 [Example 504, 2-cyclopentyl-N-[3-fluoro-2-oxo-1-(4-{5-[2-(pyridin-2-yl)acetamido]-1,3,4-thiadiazol-2-yl}butyl)-1,2-dihydropyridin-4-yl]acetamide]

Continued, compound first:

Compound | IC50 [1] [nM] | EC50 (A549 cells) [nM]
O=C(Cc1ccccc1)Nc1nnc(CCCCn2ccc(NC(=O)CC3CCCC3)c(F)c2=O)s1 [Example 502, 2-cyclopentyl-N-(3-fluoro-2-oxo-1-{4-[5-(2-phenylacetamido)-1,3,4-thiadiazol-2-yl]butyl}-1,2-dihydropyridin-4-yl)acetamide] | < 100 | 100 to 500
O=C(Cc1cccc(OC(F)(F)F)c1)Nc1nnc(CCCCn2ccc(NC(=O)CC3CCCC3)c(F)c2=O)s1 [Example 503, 2-cyclopentyl-N-{3-fluoro-2-oxo-1-[4-(5-{2-[3-(trifluoromethoxy)phenyl]acetamido}-1,3,4-thiadiazol-2-yl)butyl]-1,2-dihydropyridin-4-yl}acetamide] | < 100 | < 100
CC(=O)Nc1nnc(CCCCn2ccc(NC(=O)CC3CCCC3)c(F)c2=O)s1 [Example 505, 2-cyclopentyl-N-{1-[4-(5-acetamido-1,3,4-thiadiazol-2-yl)butyl]-3-fluoro-2-oxo-1,2-dihydropyridin-4-yl}acetamide] | < 100 | 500 to 5000
